Experiments:
[1] = test system: ID1, ID2, ID3 and ID4; test: Western blot for ID1-ID4 in HCT116 cells; assay type: cell-based; conditions: 40 μM, 0-48 hours
Experimental: Immunoblotting. For immunoblotting, cells were collected by trypsinization, washed with PBS and lysed in homogenization buffer (0.3 M sucrose, 10 mM Tris (pH 8.0), 400 mM sodium chloride, 3 mM magnesium chloride, 0.5% NP40/IGEPAL, 100 μg/mL Aprotinin+Protease inhibitor cocktail (Roche #11 836 153 001). Proteins were separated by SDS-PAGE, transferred to a membrane (LI-COR), probed with primary antibodies overnight at 4° C., and probed with secondary antibodies (LI-COR) for 1-2 hours at room temperature. Proteins were visualized using the LI-COR Odyssey Infrared Imaging detection system. The following primary antibodies were used Id1, Id2, Id3, Id4 (195-14, 9-2-8, 17-3, 82-12, respectively, all from Biocheck), Cyclin D1 (2978, Cell Signaling), Actin (A2066, Sigma), Tubulin (T4026, Sigma). Western blot quantification was carried out using channel 700 and channel 800 intensity data from Odyssey application software version 3.0.30 (LI-COR), subtracting blank values and normalizing to Tubulin.
The activity of AGX51 was tested on primary human umbilical vein endothelial cells (HUVECs) and the HCT116 colorectal cancer cell line, two cell types with different ID1-4 expression profiles. […] The effects of AGX51 on ID3 loss in HUVECs was diminished in the 20-40 μM range compared with ID1, consistent with the weaker perturbation observed in the CD spectra.

[2] = test system: MDA-MB-361; test: MTT assay, MDA-MB-361; assay type: cell-based; conditions: MDA-MB-361, HER-2 +ve cell line, 24 hours
Text: (§1) The 4T1 murine mammary tumor cell line and nine breast cancer cell lines representing the major breast cancer subtypes (ER+, HER2+, and TNBC) including MDA-MB-157, MDA-MB-436, MDA-MB-231, MDA-MB-453, MDA-MB-361, BT-474, SK-BR-3, MCF-7 and T47-D will be grown in RPMI or DMEM (Dulbecco's Modified Eagle Medium) media supplemented with 10% FBS (fetal bovine serum), 1% penicillin-streptomycin and 1% L-Glutamine. Patient derived xenograft cell lines BR7, BR11, and IBT will be established directly from breast cancer bone metastases specimens surgically resected from patients with informed consent. BR7 and BR11 specimens will be obtained from ER positive (HER2 negative and PR negative) metastatic breast cancer patients, while the IBT specimen will be obtained from a metastatic, triple negative breast cancer patient. Fresh tumor tissues will be quickly washed with ice cold PBS and minced into about 1-3 mm pieces in MEM medium (without FBS) using sterile razor blades. […] The cells will be treated with either 100 μM DMSO, AGX51, or a compound of the present technology such as AGX-A. The cell morphology and growth will be monitored daily for 1 week by microscopy for changes in morphology or cell death. […] Absorbance will then measured at 570 nm using a plate reader (Synergy 2, BioTek). […]

[3] = test system: PDX-BR7; test: MTT assay, PDX-BR7; assay type: cell-based; conditions: 24 h, PDX-BR7, PDX cell line, read-out: IC50 value after 24 hours of treatment
Text: as §1

[4] = test system: colon tumors; test: Azoxymethane (AOM) colon tumor model; assay type: in vivo, mouse; conditions: 15 mg/kg i.p. for three weeks
Experimental: Spontaneous colon tumors will be induced by treating 30, 4-week old male A/J mice (Jackson Laboratory) with AOM (10 mg/kg; Sigma Aldrich) once a week by i.p. injection for 6 weeks. Mice will be maintained on AIN-93G purified diet (Research Diets) for the duration of the experiment. After a three-week treatment break mice will be treated i.p. for three weeks with DMSO, AGX51 (15 mg/kg) or a compound of the present technology (e.g., AGX-A; 15 mg/kg). Following the last injection, the mice will be euthanized and colon tumors will be formalin fixed to assess tumor burden. Tumor numbers and size will be determined in whole mounts of the tissues following methylene blue staining. For aid in future comparison with a compound of the present technology, the study was initially performed with DMSO and AGX51 where exemplary data of effects of AGX51 on sporadic tumor is shown FIGS. 35A-35D.

[5] = test system: DU145 cells; test: Prostate cancer cell morphology, growth and death; assay type: cell-based
Experimental: Prostate cancer cell lines DU145 and PC3 (in 10% BCS) will be cultured in Ham's F12 (Gibco, Carlsbad, Calif.) medium containing 10% BCS (Hyclone, Logan, Utah) and appropriate antibiotics (pen/strep, fungizaone, and gentamycin (Invitrogen Inc., Carlsbad, Calif.). All cells will be cultured at 37° C. in a fully humidified atmosphere containing 5% CO2.
At 50% confluence, the cells will be treated with either 100 μM DMSO, AGX51, or a compound of the present technology (such as AGX-A). The cell morphology and growth will be monitored daily for 1 week by microscopy for changes in morphology or cell death. Apoptosis will be determined by measuring caspase 3 and caspase 7 activities using the Caspase-Glo 3/7 Assay system from Promega (Madison, Wis.).

CCC(=O)N(CCC(c1ccc2c(c1)OCO2)c1ccccc1OC)Cc1ccccc1 (racemic) [AGX51, N-(3-(benzo[d][1,3]dioxol-5-yl)-3-(2-methoxyphenyl)propyl)-N-benzylpropionamide]
ID protein levels [1]: reduced levels of ID1, 1D2, ID3 and ID4
percentage at 60 μM (IC50 NA) [2]: NA (60 μM = 53%)
IC50 [3]: 10.9 µM
number of colon tumors ([4]; p=0.008): significant decrease in the number of colon tumors
colon tumor size vs DMSO group ([4]; significant for tumors >3 mm (p=0.004)): smaller than those in the DMSO group
DU145 cell death ([5]; after six days): lead to cell death
effect on DU145 cells ([5]; after three days): pronounced effect on DU145 cells

From patent US20220356163A1, “SMALL MOLECULE INHIBITORS OF Id PROTEINS” (MEMORIAL SLOAN KETTERING CANCER CENTER, priority 2019, published 2022)
